According to patent publication US20090280549A1, “Method for Treating Body Fluid” (priority 2005, published 2009):

Experiments:
lymphocytes = assay: ATX-S10•Na(II) uptake into lymphocytes; format: cell-based, human
Protocol: (§1) After labeling the compound represented by formula (II) above (hereinafter referred to as “ATX-S10•Na(II)”) with ^14C, the ATX-S10•Na(II) was dissolved in saline at a concentration of approximately 1×10^−3 mol/L, and the solution was filtered and sterilized with a 0.22 μm filter and then diluted with 1% FBS (fetal bovine serum)-containing RPMI1640 medium to prepare a 5×10^−5 mol/L ATX-S10•Na(II)-added solution.
(§2) Erythrocytes, platelets, neutrophils and lymphocytes were prepared from blood sampled from three healthy persons (designated as A, B and C).
The erythrocytes, neutrophils and lymphocytes were prepared from heparinized blood. […]
After adding 400 μL of the cell suspension and 100 μL of the ATX-S10•Na(II)-added solution to each well of a 48-well microplate and mixing, the mixtures were incubated with a CO2 incubator (37° C., 5% CO2) or allowed to stand in a refrigerating chamber (approximately 4° C.). The cells were separated immediately after addition (0 hours after addition) and 1 hour, 3 hours, 20 hours and 44 hours after addition, and ATX-S10•Na(II) uptake into the cells (including cell surface binding) was measured. […]
The cell separation and uptake measurement were performed in the following manner. […] Then 4.5 mL of liquid scintillator was added and mixed therewith, and the radioactivity was measured for 5 minutes using a liquid scintillation counter. […]

[1] = system: THP-1 cells (human monocytic leukemia cells); assay: ATX-S10•Na(II) uptake into THP-1 cells; format: cell-based; conditions: for ATX-S10•Na(II) uptake: THP-1
Protocol: as §1
As malignant lymphoma cells and leukemia cells, there were used THP-1 cells (human monocytic leukemia cells), EoL-1 cells (human eosinophilic leukemia cells), A3/KAW cells (human malignant lymphoma cells) and KG-1 cells (human acute myeloid leukemia cells). All of the cells were cultured using 10% FBS-containing RPMI1640 medium, with subculturing 1 to 2 times per week during the culturing. The THP-1 cells and EoL-1 cells were obtained from RIKEN BioResource Center, and the A3/KAW cells and KG-1 cells were obtained from Japan Health Sciences Foundation.
(§3) After adding 400 μL of the cell suspension and 100 μL of the ATX-S10•Na(II)-added solution to each well of a 48-well microplate and mixing, the mixtures were incubated with a CO2 incubator (37° C., 5% CO2) or allowed to stand in a refrigerating chamber (approximately 4° C.). The cells were separated immediately after addition (0 hours after addition) and 1 hour, 3 hours, 20 hours and 44 hours after addition, and ATX-S10•Na(II) uptake into the cells (including cell surface binding) was measured. The uptake with standing at 4° C. corresponds to cell surface binding, and the value of the uptake with incubation at 37° C. minus the uptake with standing at 4° C. is presumed to correspond to the substantial ATX-S 10 Na(II) uptake for each type of cell.
(§4) The cell separation and uptake measurement were performed in the following manner. Specifically, 1 mL of 1.5% BSA (bovine serum albumin)-containing PBS solution (ice-cold) was placed in a 1.5 mL tube. The suspension of cells to be separated was gently pipetted and mixed, and a 100 μL portion was taken and superposed onto the 1.5% BSA-containing PBS solution. For each well, the cell suspension (300 μL) was dispensed into three tubes (n=3). After centrifugation (3200 rpm, 10 minutes, 4° C.), the medium and 1.5% BSA-containing PBS solution were removed by suction, and then the precipitate was suspended in 100 μL of PBS(−), and 1 mL of PBS(−) was further added and mixed therewith. After additional centrifugation (3000 rpm, 10 minutes, 4° C.), the supernatant was removed by suction, and the bottom of the tube, where the precipitate is present, was cut out and transferred to a counting vial. Then 4.5 mL of liquid scintillator was added and mixed therewith, and the radioactivity was measured for 5 minutes using a liquid scintillation counter. The measured radioactivity was used to calculate the ATX-S10•Na(II) uptake (pmol/10^5 cells) into the cells.

neutrophils = assay: ATX-S10•Na(II) uptake into neutrophils; format: cell-based, human
Protocol: as §1, §2
The erythrocytes, neutrophils and lymphocytes were prepared from heparinized blood. The heparinized blood and 6% dextran-added saline were mixed in a proportion of 3:1 (v:v), and the mixture was allowed to stand at room temperature for 30 minutes. The upper layer leukocyte fraction was centrifuged with a centrifuge tube (900 rpm, 10 minutes, 4° C.), and the precipitate was suspended in saline, superposed onto Ficoll-Hypaque® solution and centrifuged (1600 rpm, 30 minutes, room temperature). The intermediate layer was used as the lymphocyte fraction (containing monocytes) and the precipitate was used as the neutrophil fraction. The neutrophil fraction was suspended in ice-cold 0.2% NaCl solution for hemolysis, and then an equivalent amount of ice-cold 1.6% NaCl solution was immediately added to restore isotonicity. The crude erythrocyte fraction was diluted with KRP (Krebs-Ringer phosphate buffer) and centrifuged (2000 rpm, 5 minutes, 4° C.), and the buffy coat (leukocyte layer) was removed. This procedure was further repeated 4 times to yield the erythrocyte fraction.
as §3, §4
Uptake into neutrophils was measured also with addition of N-formyl-L-methionyl-L-leucyl-L-phenylalanine (hereinafter referred to as “fMLP”) (final concentration: 1×10^−7 mol/L or 1×10^−6 mol/L) or phorbol 12-myristate 13-acetate (hereinafter referred to as “PMA”) (final concentration: 1×10^−7 mol/L) to the cell suspension together with ATX-S10•Na(II).

Compound: C=Cc1c(C)c2cc3nc(cc4[nH]c(cc5nc(cc1[nH]2)C(C)=C5CCC(=O)NC(CC(=O)[O-])C(=O)[O-])c(CCC(=O)NC(CC(=O)[O-])C(=O)[O-])c4C)C(C)(O)/C3=C\C=NO.[Na+].[Na+].[Na+].[Na+] (stereo not drawn) [ATX-S10•Na(II)]
- uptake compared between cell types (lymphocytes; lymphocytes versus EoL-1, THP-1 and A3/KAW cells): higher than EoL-1 cells, although not as high as THP-1 cells or A3/KAW cells
- substantial uptake of ATX-S10•Na(II) (uptake at 37° C. minus uptake at 4° C.) (lymphocytes; lymphocytes, course over incubation time): increased with incubation time
- ATX-S10•Na(II) uptake ([1]; 0 hr, immediately after addition): 0.56 pmol/10^5 cells
- ATX-S10•Na(II) uptake ([1]; 1 hr, incubation at 37° C.): 3.30 pmol/10^5 cells
- ATX-S10•Na(II) uptake ([1]; 1 hr, standing at 4° C.): 1.43 pmol/10^5 cells
- ATX-S10•Na(II) uptake ([1]; 3 hr, incubation at 37° C.): 4.73 pmol/10^5 cells
- ATX-S10•Na(II) uptake ([1]; 3 hr, standing at 4° C.): 2.88 pmol/10^5 cells
- ATX-S10•Na(II) uptake ([1]; 20 hr, incubation at 37° C.): 18.39 pmol/10^5 cells
- ATX-S10•Na(II) uptake ([1]; 20 hr, standing at 4° C.): 5.37 pmol/10^5 cells
- ATX-S10•Na(II) uptake ([1]; 44 hr, incubation at 37° C.): 33.21 pmol/10^5 cells
- ATX-S10•Na(II) uptake ([1]; 44 hr, standing at 4° C.): 1.94 pmol/10^5 cells
- uptake compared between cell types ([1]; THP-1 cells versus A3/KAW, KG-1 and EoL-1 cells): highest
- substantial uptake of ATX-S10•Na(II) (uptake at 37° C. minus uptake at 4° C.) ([1]; THP-1 cells, course over incubation time): increased with incubation time
- ATX-S10•Na(II) uptake (neutrophils; Neutrophil (A), donor A, 0 hr, immediately after addition): 0.21 pmol/10^5 cells
- ATX-S10•Na(II) uptake (neutrophils; Neutrophil (A), 3 hr, incubation at 37° C.): 0.38 pmol/10^5 cells
- ATX-S10•Na(II) uptake (neutrophils; Neutrophil (A), 3 hr, standing at 4° C.): 0.46 pmol/10^5 cells
- ATX-S10•Na(II) uptake (neutrophils; Neutrophil (A), 20 hr, incubation at 37° C.): 4.93 pmol/10^5 cells
- ATX-S10•Na(II) uptake (neutrophils; Neutrophil (A), 20 hr, standing at 4° C.): 0.57 pmol/10^5 cells
- ATX-S10•Na(II) uptake (neutrophils; Neutrophil (B), 3 hr, incubation at 37° C.): 0.40 pmol/10^5 cells
- ATX-S10•Na(II) uptake (neutrophils; Neutrophil (B), 3 hr, standing at 4° C.): 1.27 pmol/10^5 cells
- ATX-S10•Na(II) uptake (neutrophils; Neutrophil (B), 20 hr, incubation at 37° C.): 4.04 pmol/10^5 cells
- ATX-S10•Na(II) uptake (neutrophils; Neutrophil (B), 20 hr, standing at 4° C.): 0.47 pmol/10^5 cells
- ATX-S10•Na(II) uptake (neutrophils; Neutrophil (B), 44 hr, incubation at 37° C.): 16.32 pmol/10^5 cells
- ATX-S10•Na(II) uptake (neutrophils; Neutrophil (B), 44 hr, standing at 4° C.): 0.68 pmol/10^5 cells
- ATX-S10•Na(II) uptake (neutrophils; Neutrophil (C), 3 hr, incubation at 37° C.): 0.72 pmol/10^5 cells
- ATX-S10•Na(II) uptake (neutrophils; Neutrophil (C), 3 hr, standing at 4° C.): 0.36 pmol/10^5 cells
- ATX-S10•Na(II) uptake (neutrophils; Neutrophil (C), 20 hr, incubation at 37° C.): 10.13 pmol/10^5 cells
- ATX-S10•Na(II) uptake (neutrophils; Neutrophil (C), 20 hr, standing at 4° C.): 0.95 pmol/10^5 cells
- ATX-S10•Na(II) uptake (neutrophils; Neutrophil stimulated with 1×10^−6 mol/L fMLP, 3 hr, incubation at 37° C.): 0.75 pmol/10^5 cells
- ATX-S10•Na(II) uptake (neutrophils; Neutrophil stimulated with 1×10^−6 mol/L fMLP, 3 hr, standing at 4° C.): 2.02 pmol/10^5 cells
- ATX-S10•Na(II) uptake (neutrophils; Neutrophil stimulated with 1×10^−6 mol/L fMLP, 20 hr, incubation at 37° C.): 3.57 pmol/10^5 cells
- ATX-S10•Na(II) uptake (neutrophils; Neutrophil stimulated with 1×10^−6 mol/L fMLP, 20 hr, standing at 4° C.): 0.57 pmol/10^5 cells
- ATX-S10•Na(II) uptake (neutrophils; Neutrophil stimulated with 1×10^−6 mol/L fMLP, 44 hr, incubation at 37° C.): 14.14 pmol/10^5 cells
- ATX-S10•Na(II) uptake (neutrophils; Neutrophil stimulated with 1×10^−6 mol/L fMLP, 44 hr, standing at 4° C.): 3.28 pmol/10^5 cells
- ATX-S10•Na(II) uptake (neutrophils; Neutrophil stimulated with 1×10^−7 mol/L PMA, 3 hr, incubation at 37° C.): 4.45 pmol/10^5 cells
- ATX-S10•Na(II) uptake (neutrophils; Neutrophil stimulated with 1×10^−7 mol/L PMA, 3 hr, standing at 4° C.): 2.76 pmol/10^5 cells
- ATX-S10•Na(II) uptake (neutrophils; Neutrophil stimulated with 1×10^−7 mol/L PMA, 20 hr, incubation at 37° C.): 7.33 pmol/10^5 cells
- ATX-S10•Na(II) uptake (neutrophils; Neutrophil stimulated with 1×10^−7 mol/L PMA, 20 hr, standing at 4° C.): 1.09 pmol/10^5 cells
- ATX-S10•Na(II) uptake (neutrophils; Neutrophil stimulated with 1×10^−7 mol/L fMLP, 3 hr, incubation at 37° C.): 0.79 pmol/10^5 cells
- ATX-S10•Na(II) uptake (neutrophils; Neutrophil stimulated with 1×10^−7 mol/L fMLP, 3 hr, standing at 4° C.): 0.97 pmol/10^5 cells
- ATX-S10•Na(II) uptake (neutrophils; Neutrophil stimulated with 1×10^−7 mol/L fMLP, 20 hr, incubation at 37° C.): 2.67 pmol/10^5 cells
- ATX-S10•Na(II) uptake (neutrophils; Neutrophil stimulated with 1×10^−7 mol/L fMLP, 20 hr, standing at 4° C.): 0.50 pmol/10^5 cells
- uptake after stimulation compared with unstimulated cells (neutrophils; neutrophils after stimulation with WILP or PMA): no increase in uptake
- uptake compared between cell types (neutrophils; neutrophils versus EoL-1, THP-1 and A3/KAW cells): higher than EoL-1 cells, although not as high as THP-1 cells or A3/KAW cells
- substantial uptake of ATX-S10•Na(II) (uptake at 37° C. minus uptake at 4° C.) (neutrophils; neutrophils, course over incubation time): increased with incubation time
